Assay results from patent US20230167155A1, “COMPOSITIONS AND METHODS” (KING'S COLLEGE LONDON, priority 2020, published 2023).
“Also recorded” adds a separate entry of the source. Where no end group is shown, it is not given here. The star is where a group is joined. Myristoyl = CCCCCCCCCCCCCC(=O)*

Columns and labels:
ApoE−/− mice [1] = test: Regression of established atheroma, weekly IV injections (Oil Red O en face, aortic root); type: in vivo, mouse; parameters: regression of atherosclerosis compared to PTL060 and untailed 3-MP: dose or concentration left out as unconfirmed
Procedure: For all atherosclerosis work, male ApoE−/− mice, from the age of 6-weeks, were fed with a high fat diet (HFD) consisting 35 kcal % fat, 1.25% cholesterol, and 0.5% cholic acid (Special Diet Services, Essex UK). Aortas were transplanted 2 weeks after starting the HFD, using a sleeve anastomosis technique described previously^11. Briefly, a 5 mm of the segment of the infrarenal donor aorta, flushed with 300 μl of saline containing 50 U of heparin, was transplanted into ApoE−/− recipient abdomen aortas (N=6 per group). Blood flow was confirmed by direct inspection after removal of the clamps. Mice were fed a HFD for 6-12 weeks post-transplantation before the experiment was terminated (Suppl FIG. 1A). To assess prevention of atheroma, mice (n=6 per group) received a single injection of PTL060 or controls by tail vein, and the experiments terminated 1-3 weeks later (Suppl FIG. 1B). For regression experiments, baseline groups (n=6) were fed a HFD to the age of 22 weeks before the mice were sacrificed. Experimental or control groups (n=3-6 per group) received weekly injections by tail vein for 3-6 weeks, beginning at age of 22 weeks before the experiments were terminated when mice were 25-28 weeks old (Suppl FIG. 1C).
Atherosclerotic lesions were evaluated as previously described^11. Simply, the entire length of the aorta was perfused with PBS, dissected using a dissecting microscope, longitudinally opened and stained with Oil Red O (ORO) solution (Sigma, UK) for 30 minutes, before being photographed with a digital camera (DSC-W320, Sony, Japan). The total aortic area and lesional area were measured by using Image J. Aortas from every animal were assessed. To assess lesions in the aortic sinus, hearts were embedded in paraffin, sectioned through the aortic root and incubated with elastin/van Gieson stain using the Accustain™ Elastin Stain kit (Sigma). Sections were examined on an Olympus U-ULH optical microscope (Olympus Optical Co. Ltd, Tokyo, Japan). Atheromatous lesional and total aortic root area was determined using Image-Pro Plus TM software version 4.0 (Media Cybernetics, Silver Spring, USA). At least three random sections were examined from each mouse in all groups.

ApoE−/− mice [2] = test: Regression by weekly adoptive transfer of CD11b+ cells / monocytes pre-incubated with compound; type: in vivo, mouse; settings: HFD 16 weeks, weekly IV 6 weeks; monocytes pre-treated 30 minutes, PTL060 100 microM or PTL0GC-1 25 microM
Procedure: In more detail, mechanistic insights: direct effect on monocyte/macrophage phenotype. ApoE−/− mice were fed a high fat diet for 16 weeks (baseline), prior to weekly IV treatment for 6 weeks with monocytes from BL6 mice, pre-treated for 30 minutes with either PTL060 (100 microM) or PTL0GC-1 (actually used at ¼ concentration-25 microM).
Extent of atherosclerosis was explored by en face examination of the surface area of aorta containing plaques using Oil-Red-O
Leukocytes were isolated from the blood of mice aged 8-10 weeks, using anti-CD11b MicroBeads (Miltenyi Biotec Ltd, Surrey, UK) according to manufacturers' instructions. For cell labelling, 2×10^7 CD11b+ cells were incubated with 4×10^−6 M of either PKH26 or PKH2 fluorescent dyes (Sigma, UK) for 5 minutes at 25° C. according to manufacturers' protocols, with the reaction stopped using 1% BSA in PBS followed by three washes. Each recipient mouse received 0.5×10^6 cells by IV injection; in some experiments, the cells were incubated with PTL060 (100 μM in 0.5 mls) or equimolar controls for 30 minutes at room temperature and washed three times before immediate injection. For viability assays, murine bone marrow cells were incubated for 5 days in 6 well plates, counted and re-seeded at 2×10^5 cells/ml in 24 well plates with 25 ng/ml MCSF. […]

C57BL/6 mice [3] = test: Delayed type hypersensitivity, contact sensitivity to oxazolone (ear swelling); type: in vivo, mouse
Procedure: C57BL/6 mice were topically sensitised with oxazolone on the shaved abdomen on day 0. Treatment with either saline, PTL060 (10 mg/g), equimolar PTL0GC-1 or equimolar *3-MP was given on day 3 and day 5, the last immediately prior to re-challenge with oxazolone onto the right ear. The left ear was treated with vehicle alone. On day 6, the difference in swelling of the right and left ears was measured and is presented as D mean ear thickness.
This example uses a model of contact hypersensitivity. Here, mice are challenged on the abdomen with the contact sensitizer oxazolone, before a re-challenge […] on both sides of the ear with oxazolone (on the right) or vehicle alone (on the left).
Swelling of the ears, measured with a micrometer, reflects the influx of monocytes/macrophages and T cells in a typical delayed-type hypersensitivity (DTH) response.
FIG. 19: Model of DTH involving contact sensitivity to oxazolone. WT mice were administered a PAR-1 agonist or antagonist at the point of second exposure to oxazolone, before ear thickness was assessed 24 hours later, and mice sacrificed for immunohistological analysis of cross sections of the affected ears, to determine the proportional area occupied by CD68+ cells (macrophages). *p<0.05. **p<0.01. ***p<0.001

C57BL/6 mice [4] = test: Ischaemia reperfusion injury, acute kidney injury; type: in vivo, mouse; settings: 2 doses 7.5 mg/ml
Procedure: In more detail, Model 3: Ischaemia reperfusion injury: PTL0GC-1 induces quicker recovery, associated with reduced fibrosis, post acute kidney injury. Both kidneys of C57BL/6 mice were exposed under recovery anaesthesia, and both renal arteries completely occluded by clamps for 30 minutes, prior to release. 2 doses of PTL0GC-1 (7.5 mg/ml) or saline were administered to the mice immediately prior to clamping, and immediately prior to clamp release. Mice were allowed to recover and then monitored for 3 weeks, prior to euthanasia.

[5] = Aristolochic acid nephropathy (AAN) model of renal fibrosis; type: in vivo; settings: vs equimolar PTL060 or pure PAR-1 antagonist

## [Myr2]-KSSKSPSKKDDKKPGDK(CO—CH2-S—CH2-CH2-Phe-Cha-Cha-Arg-Lys-Pro-Asn-Asp-Lys-NH2)NH2 (K(Myristoyl)SSKSPSKKDDKKPGDK-NH2; not fully specified (residue 17, N-terminus); also: branched: thioether-linked Phe-Cha-Cha-Arg-Lys-Pro-Asn-Asp-Lys-NH2 on Lys17 side chain) [PTL0GC-1]
ApoE−/− mice [1]; ApoE−/− mice, vs equimolar PTL060 or pure PAR-1 antagonist
  regression of atherosclerosis, being confirmed: causes significant regression of atherosclerosis
ApoE−/− mice [1]; HFD 16 weeks, weekly IV for 6 weeks, equimolar to PTL060
  regression of atherosclerosis compared to PTL060 and untailed 3-MP: Superior regression
ApoE−/− mice [2]
  regression after transfer of pre-treated monocytes: the same degree of regression associated with IV treatment of the same reagents; also recorded: superior regression
C57BL/6 mice [3]; intraperitoneal or subcutaneous, day 3 and day 5
  DTH response, IP and SC administration: efficacy of both IP and SC administration; also recorded: can inhibit the DTH response
C57BL/6 mice [3]; intravenously, day 3 and day 5, equimolar to PTL060 (10 mg/g), vs PTL060 and 3-MP
  difference in ear swelling (D mean ear thickness): biggest effect
C57BL/6 mice [3]; model of DTH
  macrophage infiltration into the skin: reduced macrophage infiltration into the skin
C57BL/6 mice [4]; prior to clamping and prior to clamp release, renal arteries clamped 30 minutes
  impact on the AKI: no impact on the AKI
C57BL/6 mice [4]; 3 weeks
  kidney fibrosis, histological analysis: trend towards less fibrosis
C57BL/6 mice [4]; by 3 weeks
  renal function: better renal function by 3 weeks
C57BL/6 mice [4]; monitored 3 weeks
  body weight during recovery phase: gain weight quicker
[5]
  development of renal fibrosis, being confirmed: inhibits development of renal fibrosis
